# Results reported in patent US10233426B2, “Method for inducing cardiac differentiation of pluripotent stem cell with low-molecular compounds” (KYOTO UNIVERSITY, priority 2014, dated 2019).
# Test system: monkey ES cell line transfected with an αMHC promoter-driven GFP gene
# Assay: Chemical screening: GFP fluorometry for cardiac differentiation of monkey ES cells
# Type: cell-based, cynomolgus monkey
# Details: for intensity of GFP fluorescence relative to control culture (KY02111 only, assigned to one): GFP fluorometry day 9; for increase of cardiac differentiation: alone or in combination with KY02111 (10 μM in late phase)
# Protocol: Pluripotent stem cells were cultured in culture media to which the test compounds were added in different concentrations (0.3 μM, 1 μM, 3 μM and 10 μM) in early phase and late phase of differentiation of the cells. Cells from the culture were subjected to GFP fluorometry in accordance with the cardiac differentiation protocol shown in FIG. 1a. Besides the test compounds, 10 μM KY02111 was included in the culture media for the late phase differentiation. The intensity of GFP fluorescence determined in the cells from the control culture, which was cultured with no test compound other than KY02111, was assigned to one.
# The scheme of chemical screening is illustrated in FIG. 1a. Compounds were screened for the ability of increasing GFP fluorescence compared with the control (KY02111 alone) using a monkey ES cell line transfected with an αMHC promoter-driven GFP gene (Minami et al., Cell Reports 2, 1448-1460, 2012, which is incorporated herein by reference). The ES cell line was derived from a monkey ES cell line (cynomolgus monkey CMK6.4) by transfecting the cells with a vector which expresses green fluorescent protein (GFP) under control by a promoter of α-MHC gene (a marker of cardiac differentiation). The cells were plated at 4.0×10^5 cells per well in 6 well plates (Asahi Glass/5816-006: Ezview culture plates) and cultured for nine days in an IMDM-based medium for cardiac differentiation (200 ml IMDM medium (Sigma 13390), with 50 ml calf serum (GIBCO 10099-141), 2.5 ml MEM non-essential amino acid solution (Sigma M7145), 2.5 ml penicillin-streptomycin ([…]), 2.5 ml 200 mM L-glutamine, 2 ul 2-mercaptoethanol (Sigma M7522), and 255 ul 5N NaOH). Each test compound was added to the medium at different concentrations in the early phase (day 0 to day 3) and the late phase (day 4 to day 7) of cardiac differentiation. Cells obtained from the culture on day 9 were subjected to GFP fluorometry with a Metamorph imaging system. […]
# [1] = test compound 0.3 μM in Early phase (day 0 to day 3), 10 μM KY02111 in late phase
# [2] = test compound 0.3 μM in Late phase (day 4 to day 7) with 10 μM KY02111
# [3] = test compound 1 μM in Early phase (day 0 to day 3), 10 μM KY02111 in late phase
# [4] = test compound 1 μM in Late phase (day 4 to day 7) with 10 μM KY02111
# [5] = test compound 3 μM in Early phase (day 0 to day 3), 10 μM KY02111 in late phase
# [6] = test compound 3 μM in Late phase (day 4 to day 7) with 10 μM KY02111
# [7] = test compound 10 μM in Early phase (day 0 to day 3), 10 μM KY02111 in late phase
# [8] = test compound 10 μM in Late phase (day 4 to day 7) with 10 μM KY02111
Structure (SMILES),"intensity of GFP fluorescence relative to control culture (KY02111 only, assigned to one) [1]","intensity of GFP fluorescence relative to control culture (KY02111 only, assigned to one) [2]","intensity of GFP fluorescence relative to control culture (KY02111 only, assigned to one) [3]","intensity of GFP fluorescence relative to control culture (KY02111 only, assigned to one) [4]","intensity of GFP fluorescence relative to control culture (KY02111 only, assigned to one) [5]","intensity of GFP fluorescence relative to control culture (KY02111 only, assigned to one) [6]","intensity of GFP fluorescence relative to control culture (KY02111 only, assigned to one) [7]","intensity of GFP fluorescence relative to control culture (KY02111 only, assigned to one) [8]","increase of cardiac differentiation (3 to 10 μM in early phase, FIG. 1b)","cardiac differentiation (screening conclusion) (under appropriate conditions, Table 1)","increase of cardiac differentiation (1 to 3 μM in late phase, FIG. 1e)"
Cc1c[nH]c(/C=C2\C(=O)Nc3ccccc32)c1CCC(=O)O [SU5402],0.09,0.89,0,1,0,0.46,0,0.06,,,
CC(=O)O[C@@]12C[C@@H](C)[C@@]3(O)[C@@H](C=C(CO)C[C@]4(O)C(=O)C(C)=C[C@@H]34)[C@@H]1C2(C)C [Prostratin],0.79,0.72,2.31,0.3,5.42,0.01,6.88,0,three- to eight-fold,promoted,
COc1cc([C@@H]2c3cc4c(cc3[C@H](O)[C@H]3COC(=O)[C@@H]23)OCO4)cc(OC)c1OC [PPP],0.2,0.39,0,0.2,0,0,0,0,,,
CC(C)(O)/C=C/C(=O)[C@](C)(O)[C@H]1[C@H](O)C[C@@]2(C)[C@@H]3CC=C4[C@@H](C=C(O)C(=O)C4(C)C)[C@]3(C)C(=O)C[C@]12C [Cucurbitaonl],0.11,1.62,0,0,0,0,0,0,,,
CCN(CC)CCCCNc1ncc2cc(-c3cc(OC)cc(OC)c3)c(NC(=O)NC(C)(C)C)nc2n1 [PD173074],0.02,0.23,0,0.08,0,0,0,0,,,
Cc1cc(Nc2ncc3c(n2)N(C)C(=O)N(c2cc(NC(=O)c4cccc(C(F)(F)F)c4)ccc2C)C3)n(C)n1 [SC-1],0.16,0.14,0,0,0,0,0,0,,,
NC(=O)c1ccc(-c2nc(-c3ccccn3)c(-c3ccc4c(c3)OCO4)[nH]2)cc1 [5B431542],0.61,1.2,0.1,1.52,0,1.44,0,1.58,,,
CC(C)(C)c1ccc(S(=O)(=O)Nc2ccc(-n3ccnc3)cc2)cc1 [ISCK03],0.08,1.23,0,0.8,0,0.79,0,0.88,,,
c1cc(-c2cnn3cc(-c4ccc(OCCN5CCCCC5)cc4)cnc23)ccn1 [Dorsomorphin],0.13,0.96,0.03,1.67,0,1.22,0,0.89,,,
O=C1NC(=O)/C(=C\c2ccc3nccnc3c2)S1 [AS605240],0.65,1.31,0.84,0.9,0.32,1.22,0,0.55,,,
COc1ccc2c(c1)c(C1=C(c3c[nH]c4ccccc34)C(=O)NC1=O)cn2CCCN(C)C [Go6983],1.1,1.12,0.98,0.62,2.31,0.45,2.12,0.13,,,
O=c1[nH]c2ccccc2n1C1CCN(Cc2ccc(-c3nc4cc5[nH]cnc5cc4nc3-c3ccccc3)cc2)CC1 [Akt inhibitor 8],1.2,1.11,0.96,1.57,0.11,1.33,0,1.11,,,
CN(C)S(=O)(=O)c1ccc2c(c1)/C(=C/c1cc3c([nH]1)CCCC3)C(=O)N2 [SU6656],,,,,,,,,,,two- to five-fold
